From PubChem BioAssay AID200 (DTP/NCI, 2004) come the findings set out here.

For this experiment, the system named is B6C3F1 mice, B16 melanoma ip, median survival T/C. Briefly: NCI In Vivo Anticancer Drug Screen. Data for tumor model B16 Melanoma (intraperitoneal) in B6C3F1 mice. The conditions noted are these: endpoint: median survival time, higher = longer survival. The procedure, abridged: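 Readout: survival or tumor size in treated mice relative to vehicle controls (T/C). Model uses transplantable tumors grown in mice.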

The mark [1] stands for this setting: dose: 6.25 mg/kg/injection, schedule: Q01DX009 (ip), vehicle: saline with Tween-80.
Where [2] appears, read: dose: 12.5 mg/kg/injection, schedule: Q01DX009 (ip), vehicle: saline with Tween-80.
[3] abbreviates: dose: 25.0 mg/kg/injection, schedule: Q01DX009 (ip), vehicle: saline with Tween-80.
Where [4] appears, read: dose: 50.0 mg/kg/injection, schedule: Q01DX009 (ip), vehicle: saline with Tween-80.
[5] abbreviates: dose: 100.0 mg/kg/injection, schedule: Q01DX009 (ip), vehicle: saline with Tween-80.
[6] abbreviates: dose: 3.12 mg/kg/injection, schedule: Q01DX009 (ip), vehicle: water.
Where [7] appears, read: dose: 25.0 mg/kg/injection, schedule: Q01DX009 (ip), vehicle: Klucel (hydroxypropylcellulose) (HPC).
Setting [8] is: dose: 50.0 mg/kg/injection, schedule: Q01DX009 (ip), vehicle: Klucel (hydroxypropylcellulose) (HPC).
The mark [9] stands for this setting: dose: 100.0 mg/kg/injection, schedule: Q01DX009 (ip), vehicle: Klucel (hydroxypropylcellulose) (HPC).
Setting [10] is: dose: 200.0 mg/kg/injection, schedule: Q01DX009 (ip), vehicle: Klucel (hydroxypropylcellulose) (HPC).

“And” between values parts separate entries of the source, which are not always exact repeats. Identical values can stand only once. Inconclusive results and toxic doses are left out.

Consider `O=C(Nc1cccc2c(OC(=O)C(Cl)Cl)c(N=Nc3ccc(S(=O)(=O)Nc4nccs4)cc3)cc(N=Nc3ccc(S(=O)(=O)Nc4nccs4)cc3)c12)C(Cl)Cl` (tested in a mixture with another compound), for which the T/C was 104 % of control (dose: 3.12 mg/kg/injection, schedule: Q01DX009 (ip), vehicle: saline with Tween-80); 94 % of control (dose: 3.13 mg/kg/injection, schedule: Q01DX009 (ip), vehicle: saline with Tween-80); 115 % of control and 119 % of control and 87 % of control under setting [1]; 114 % of control and 100 % of control and 104 % of control under setting [2]; 109 % of control under setting [3]; 108 % of control under setting [4]. Moreover, the T/C under setting [5] was 95 % of control.

For the compound `N=c1ccn2c(n1)OC1C(O)C(CO)OC12` (centres undefined), the T/C (dose: 18.75 mg/kg/injection, schedule: Q01DX009 (ip), vehicle: saline) is 100 % of control; the T/C (dose: 37.5 mg/kg/injection, schedule: Q01DX009 (ip), vehicle: saline) is 118 % of control and 104 % of control; the T/C (dose: 75.0 mg/kg/injection, schedule: Q01DX009 (ip), vehicle: saline) is 100 % of control and 106 % of control (2×); the T/C (dose: 150.0 mg/kg/injection, schedule: Q01DX009 (ip), vehicle: saline) is 114 % of control and 106 % of control (2×); the T/C (dose: 300.0 mg/kg/injection, schedule: Q01DX009 (ip), vehicle: saline) is 112 % of control and 121 % of control and 106 % of control.

With `O=NNc1ccccn1`, the T/C is, setting by setting: (dose: 1.56 mg/kg/injection, schedule: Q01DX009 (ip), vehicle: water) 120 % of control and 96 % of control; under setting [6], 116 % of control and 120 % of control and 124 % of control.

On to `O=NN(CCF)C(=O)NC1C(O)CCCC1O` (centres undefined), for which the T/C is 198 % of control (dose: 7.5 mg/kg/injection, schedule: Q01DX001 (ip), vehicle: saline); 222 % of control (dose: 15.0 mg/kg/injection, schedule: Q01DX001 (ip), vehicle: saline); 350 % of control (dose: 30.0 mg/kg/injection, schedule: Q01DX001 (ip), vehicle: saline); 350 % of control (dose: 60.0 mg/kg/injection, schedule: Q01DX001 (ip), vehicle: saline).

Consider `O=c1cc(-c2ccccc2)[nH]c2c1CCCC2`, for which the T/C is 109 % of control under setting [5] and 117 % of control (dose: 200.0 mg/kg/injection, schedule: Q01DX009 (ip), vehicle: saline with Tween-80).

Regarding `CNC(=O)/C=C/C1=CN2C(=O)c3ccc(C)c(O)c3NC(OC)C2C1` (centres undefined), the T/C was 109 % of control and 106 % of control (dose: 0.01 mg/kg/injection, schedule: Q01DX009 (ip), vehicle: saline); 109 % of control (dose: 0.02 mg/kg/injection, schedule: Q01DX009 (ip), vehicle: saline); 115 % of control (dose: 0.03 mg/kg/injection, schedule: Q01DX009 (ip), vehicle: saline); 113 % of control and 116 % of control (dose: 0.05 mg/kg/injection, schedule: Q01DX009 (ip), vehicle: saline); 98 % of control (dose: 0.05 mg/kg/injection, schedule: Q01DX009 (ip), vehicle: suspension in saline); 117 % of control and 98 % of control (dose: 0.1 mg/kg/injection, schedule: Q01DX009 (ip), vehicle: saline). The T/C (dose: 0.1 mg/kg/injection, schedule: Q01DX009 (ip), vehicle: suspension in saline) is 97 % of control and the T/C (dose: 0.2 mg/kg/injection, schedule: Q01DX009 (ip), vehicle: saline) is 119 % of control.

Turning to `Nc1nc(=S)c2ncn(C3CC(O)C(CO)O3)c2[nH]1` (centres undefined), the T/C was 101 % of control (dose: 12.5 mg/kg/injection, schedule: Q01DX009 (ip), vehicle: saline); 96 % of control (dose: 25.0 mg/kg/injection, schedule: Q01DX009 (ip), vehicle: saline); 104 % of control (dose: 50.0 mg/kg/injection, schedule: Q01DX009 (ip), vehicle: saline); 104 % of control (dose: 100.0 mg/kg/injection, schedule: Q01DX009 (ip), vehicle: saline); 103 % of control (dose: 200.0 mg/kg/injection, schedule: Q01DX009 (ip), vehicle: saline); 103 % of control (dose: 400.0 mg/kg/injection, schedule: Q01DX009 (ip), vehicle: saline).

In the case of `CC(C)NC(=O)OCc1c(COC(=O)NC(C)C)c(-c2ccc(Cl)c(Cl)c2)n2c1CC(OC(=O)CN(C)C)C2` (centres undefined), the T/C (dose: 10.0 mg/kg/injection, schedule: Q01DX009 (ip), vehicle: distilled water + Tween-80) is 152 % of control and 153 % of control; the T/C (dose: 20.0 mg/kg/injection, schedule: Q01DX009 (ip), vehicle: distilled water + Tween-80) was 152 % of control and 168 % of control; the T/C (dose: 40.0 mg/kg/injection, schedule: Q01DX009 (ip), vehicle: distilled water + Tween-80) is 174 % of control and 190 % of control.

On to `Cc1ccc(N=NN(C)C)c2cccnc12`, for which the T/C was 106 % of control (dose: 3.13 mg/kg/injection, schedule: Q01DX009 (ip), vehicle: other); 95 % of control (dose: 6.25 mg/kg/injection, schedule: Q01DX009 (ip), vehicle: other); 108 % of control (dose: 12.5 mg/kg/injection, schedule: Q01DX009 (ip), vehicle: other); 114 % of control (dose: 25.0 mg/kg/injection, schedule: Q01DX009 (ip), vehicle: other); 115 % of control (dose: 50.0 mg/kg/injection, schedule: Q01DX009 (ip), vehicle: other).

For `COc1c2occc2c(N=NN(C)C)c2ccc(=O)oc12`, the T/C was 98 % of control under setting [1], 99 % of control under setting [2], 104 % of control under setting [3] and 107 % of control under setting [4].

`CN(C)C(=O)SC1=C(c2c(Cl)cccc2Cl)C(=O)c2ccccc21`: the T/C by setting is: under setting [7], 98 % of control; under setting [8], 96 % of control; under setting [9], 101 % of control; under setting [10], 101 % of control.

On to `CN(C)CCOc1ccc2c(c1)C/C(=C/c1ncc([N+](=O)[O-])n1C)C2=O`, for which the T/C was 100 % of control under setting [1], 104 % of control under setting [2], 100 % of control under setting [3] and 111 % of control under setting [4].

As to `COc1oc(C2C/C(=C/C(C)=C/C(C)=C/C(C)=C/c3ccc([N+](=O)[O-])cc3)CO2)c(C)c(=O)c1C` (centres undefined), the T/C runs as follows: (dose: 0.25 mg/kg/injection, schedule: Q01DX009 (ip), vehicle: saline with Tween-80) 96 % of control; (dose: 0.5 mg/kg/injection, schedule: Q01DX009 (ip), vehicle: saline with Tween-80) 98 % of control; (dose: 1.0 mg/kg/injection, schedule: Q01DX009 (ip), vehicle: saline with Tween-80) 99 % of control; (dose: 2.0 mg/kg/injection, schedule: Q01DX009 (ip), vehicle: saline with Tween-80) 103 % of control.

In the case of `O=C1SC(c2ccccc2)=S=C1c1ccccc1`, the T/C under setting [7] is 92 % of control, the T/C under setting [8] is 97 % of control, the T/C under setting [9] was 98 % of control and the T/C under setting [10] was 93 % of control.

Turning to `CCN(Cc1ccc(Cl)c(Cl)c1)c1ccc2nc(N)nc(N)c2c1C`, the T/C by setting is: under setting [6], 112 % of control and 123 % of control; (dose: 3.13 mg/kg/injection, schedule: Q01DX009 (ip), vehicle: distilled water + Tween-80) 120 % of control; (dose: 6.25 mg/kg/injection, schedule: Q01DX009 (ip), vehicle: water) 124 % of control; (dose: 12.5 mg/kg/injection, schedule: Q01DX009 (ip), vehicle: water) 92 % of control; (dose: 25.0 mg/kg/injection, schedule: Q01DX009 (ip), vehicle: water) 150 % of control.

On to `C[n+]1cccc(NC(=O)c2ccc(NC(=O)C34CCC(C(=O)Nc5ccc(C(=O)Nc6ccc[n+](C)c6)cc5)(CC3)CC4)cc2)c1`, for which the T/C is 114 % of control (dose: 2.5 mg/kg/injection, schedule: Q01DX009 (ip), vehicle: saline with Tween-80); 111 % of control and 117 % of control and 118 % of control (dose: 5.0 mg/kg/injection, schedule: Q01DX009 (ip), vehicle: saline with Tween-80); 119 % of control (dose: 10.0 mg/kg/injection, schedule: Q01DX009 (ip), vehicle: saline with Tween-80); 121 % of control and 99 % of control (dose: 20.0 mg/kg/injection, schedule: Q01DX009 (ip), vehicle: saline with Tween-80).

Turning to `[N-]=[N+]=C1N=CN=C1c1ncn[nH]1`, the T/C is 104 % of control (dose: 3.12 mg/kg/injection, schedule: Q01DX009 (ip), vehicle: Klucel (hydroxypropylcellulose) (HPC)); 113 % of control (dose: 6.25 mg/kg/injection, schedule: Q01DX009 (ip), vehicle: Klucel (hydroxypropylcellulose) (HPC)); 121 % of control (dose: 12.5 mg/kg/injection, schedule: Q01DX009 (ip), vehicle: Klucel (hydroxypropylcellulose) (HPC)).
